The test system of assay [1] is HepG2. The assay is described as follows: Cytotoxicity against human HepG2 cells assessed as cell growth inhibition measured after 48 hrs by MTT assay. The conditions noted are these: HepG2, 48 h. The assay is classed as functional, cell-based. Background: Formazan colour is commonly taken as a measure of viable cells.
The test system of assay [2] is MCF7. The assay is described as follows: Cytotoxicity against human MCF7 cells assessed as cell growth inhibition incubated for 48 hrs by SRB assay. The assay is classed as functional, cell-based. Particulars: MCF7, 48 h. Background: In SRB staining, fixed cells bind dye roughly in proportion to their protein.
Assay [3] concerns MCF7. The assay is described as follows: Antiproliferative activity against human MCF7 cells assessed as reduction in cell viability incubated for 72 hrs by MTT assay. The assay is classed as functional, cell-based. Particulars: MCF7, 72 h.
In assay [4] the test system is HepG2. Nature of the assay: Antiproliferative activity against human HepG2 cells assessed as reduction in cell viability by MTT assay. The assay is classed as functional, cell-based.
The next assay relates to DU-145. The assay is described as follows: Antiproliferative activity against human DU-145 cells assessed as reduction in cell viability by MTT assay. The assay is classed as functional, cell-based.
For assay [5], the system named is MCF7. Nature of the assay: Antiproliferative activity against human MCF7 cells assessed as reduction in cell viability by MTT assay. In kind it is functional, cell-based.
In another assay the test system is A549. Nature of the assay: Antiproliferative activity against human A549 cells assessed as reduction in cell viability by MTT assay. In kind it is functional, cell-based.
In another assay the test system is MCF7-DOX. The assay is described as follows: Antiproliferative activity against human MCF7-DOX cells assessed as reduction in cell viability by MTT assay. In kind it is functional, cell-based.
In another assay the test system is SK-OV-3. The assay is described as follows: Antiproliferative activity against human SK-OV-3 cells assessed as reduction in cell viability by MTT assay. In kind it is functional, cell-based.
Assay [6] has as its system HeLa. Nature of the assay: Antiproliferative activity against human HeLa cells assessed as reduction in cell viability by MTT assay. The assay is classed as functional, cell-based.
Assay [7] has as its system MCF7. The assay is described as follows: Cytotoxicity against human MCF7 cells assessed as cell growth inhibition measured after 48 hrs by MTT assay. In kind it is functional, cell-based. Particulars: MCF7, 48 h.
In assay [8] the test system is MCF7. Nature of the assay: Antiproliferative activity against human MCF7 cells assessed as cell growth inhibition. In kind it is functional, cell-based.
The test system of assay [9] is MCF7. The assay is described as follows: Cytotoxicity against human MCF7 cells assessed as inhibition of cell growth measured after 24 hrs by MTT assay. In kind it is functional, cell-based. The conditions noted are these: MCF7, 24 h.
Assay [10] concerns HeLa. Nature of the assay: Anticancer activity against human HeLa cells assessed as cell growth inhibition. The assay is classed as functional.
The test system of assay [11] is MCF7. The assay is described as follows: Antiproliferative activity against human MCF7 cells assessed as reduction in cell proliferation by CCK-8 assay. The assay is classed as functional, cell-based.
Assay [12] has as its system K562. The assay is described as follows: Cytotoxicity against human K562 cells assessed as reduction in cell growth by MTT assay. In kind it is functional, cell-based.
The test system of assay [13] is MDA-MB-231. The assay is described as follows: Antiproliferative activity against human MDA-MB-231 cells assessed as reduction in cell viability measured after 72 hrs under normoxia condition by MTT assay. Particulars: MDA-MB-231, 72 h.
Assay [14] concerns MDA-MB-231. The assay is described as follows: Antiproliferative activity against human MDA-MB-231 cells assessed as reduction in cell viability measured after 72 hrs under hypoxia condition by MTT assay. Particulars: MDA-MB-231, 72 h. In kind it is functional, cell-based.
The subject of another assay is 4T1. Nature of the assay: Cytotoxicity against mouse 4T1 cells assessed as inhibition of cell proliferation incubated for 72 hrs by MTT assay. In kind it is functional, cell-based. The conditions noted are these: 4T1, 72 h.
Assay [15] relates to MCF7. The assay is described as follows: cells. The conditions noted are these: Homo sapiens, MCF7, 24 h.
Description: Cytotoxicity against human MCF7 cells assessed as reduction in cell viability incubated for 24 hrs by MTT assay
Assay [16] has as its system MCF7. Nature of the assay: Anticancer activity against human MCF7 cells assessed as cell growth inhibition by MTT assay. In kind it is functional, cell-based.
Assay [17] relates to HepG2. Nature of the assay: Antiproliferative activity against human HepG2 cells assessed as reduction in cell viability incubated for 48 hrs by MTT assay. Particulars: HepG2, 48 h. In kind it is functional, cell-based.
The next assay has as its system HOS. Nature of the assay: Cytotoxicity against human HOS cells assessed as reduction in cell growth incubated for 5 days by MTT assay. Particulars: 120 h. The assay is classed as functional, cell-based.
For assay [18], the system named is MCF7. The assay is described as follows: Cytotoxicity against human MCF7 cells assessed as reduction in cell growth incubated for 5 days by MTT assay. In kind it is functional, cell-based. Particulars: MCF7, 120 h.
Assay [19] concerns MCF7. The assay is described as follows: Antiproliferative activity against human MCF7 cells assessed as reduction in cell viability measured after 24 hrs by MTT assay. The assay is classed as functional, cell-based. Particulars: MCF7, 24 h.
In another assay the test system is T47D. The assay is described as follows: Anticancer activity against human T47D cells assessed as cell growth inhibition. The assay is classed as functional, cell-based.
The test system of assay [20] is K562. The assay is described as follows: Cytotoxicity against human K562 cells assessed as reduction in cell viability incubated for 72 hrs by MTT assay. In kind it is functional, cell-based. The conditions noted are these: K562, 72 h.

Values after ≈ are worked out from the molar mass of the structure shown.

Turning to `Cc1cc(-c2cc3ccccc3oc2=O)n(-c2nc(-c3ccc(Cl)cc3)cs2)n1`, the IC50 (usually the concentration that gives 50% inhibition) with HepG2 [1] was determined as 3.74 µM. Consider `COc1ccc(/C=C2/SC(=O)N(CCCOc3ccc4c(C)cc(=O)oc4c3)C2=O)cc1`, for which the IC50 with MCF7 [2] was 15.6 µg/mL (≈ 34.7 µM). On to `COc1ccc(/C=C/C(=N/O)c2ccc(NC(=O)COc3ccc4c(C)cc(=O)oc4c3)cc2)cc1`, for which, in the assay with MCF7 [3], the IC50 amounted to 20.9 µg/mL (≈ 43.1 µM). With `CO/N=C1\C(=O)N(CCOCCOCCOCCn2cc(COc3ccc4c(C)cc(=O)oc4c3)nn2)c2ccc(F)cc21`, the IC50 came out at 26.1 µM with HepG2 [4]; 33.4 µM with DU-145; 29.2 µM with MCF7 [5]; 28.7 µM in the assay with A549; 20.1 µM with MCF7-DOX; 35.3 µM in the assay with SK-OV-3. In addition, the IC50 in the assay on HeLa [6] stood at 25.5 µM. As for `Cc1cc(-c2cc3cc(Cl)ccc3oc2=O)n(-c2nc(-c3ccc(Cl)cc3)cs2)n1`, the IC50 worked out at 4.42 µM in the assay with MCF7 [7] and 3.06 µM in the assay on HepG2 [1].

Turning to `O=C1CCn2cc(nn2)CCOc2ccccc2C(C(=O)c2cc3ccccc3oc2=O)N1` (stereo not given), the IC50 in the assay with MCF7 [8] was determined as 49 µM. As for `COc1ccc(-c2cc(-c3cc4ccccc4oc3=O)nc(NC(C)=O)c2C#N)cc1`, the IC50 in the assay with MCF7 [9] came to 1.1 µM. With `COc1ccc2oc(=O)cc(-c3nc4ccccc4n3S(=O)(=O)c3ccc(C)cc3)c2c1`, the GI50 (in general, the concentration that inhibits growth by half) in the assay on HeLa [10] worked out at 35.3 µg/mL (≈ 79.1 µM). Take `CCCCCCc1c(C)c2ccc(OS(N)(=O)=O)cc2oc1=O`: in the assay on MCF7 [11], the IC50 was 0.008 µM.

With `Cc1c(Cc2ccc(NC(=O)Nc3ccc(F)c(F)c3)nc2)c(=O)oc2cc(O)c(C(C)(C)C)cc12`, the IC50 with K562 [12] worked out at 1.66 µM. Regarding `O=c1cc(O)c2ccccc2o1` [4-HYDROXYCOUMARINS], the concentration for half-maximal inhibition (IC50) in the assay with MDA-MB-231 [13] and with MDA-MB-231 [14] was at least 100 µM in each case.

On to `O=C(Cc1cc(=O)oc2cc(O)ccc12)NCCCCCCCCNc1c2c(nc3ccccc13)CCCC2`, for which the IC50 in the assay on 4T1 is 7 µM. In the case of `Cc1c(Cc2ccc(NC(=O)Nc3ccc(Cl)c(F)c3)nc2)c(=O)oc2cc(O)c(C(C)(C)C)cc12`, in the assay on K562 [12], the half-maximal inhibitory concentration (IC50) came to 1.66 µM. Turning to `C/C(=N\Nc1nc(C)c(/N=N/c2ccc(C)cc2)s1)c1cc2cc(/N=N/c3ccccc3)ccc2oc1=O`, it took 11.2 µM to reach half-maximal inhibition in the assay on MCF7 [15] (IC50). For `CCN(CC)c1ccc2oc(=O)c(-c3csc(-n4nc(-c5ccccc5)cc4N)n3)cc2c1`, the half-inhibitory concentration (IC50) in the assay on MCF7 [16] is 8 µM. As to `COc1ccc(-c2csc(-n3nc(C)cc3-c3cc4cc(Cl)ccc4oc3=O)n2)cc1`, in the assay on MCF7 [7], the IC50 worked out at 4.03 µM. In the assay on MCF7 [15], `C/C(=N\Nc1nc(C)c(/N=N/c2ccc(Cl)cc2)s1)c1cc2cc(/N=N/c3ccccc3)ccc2oc1=O` had an IC50 of 10.5 µM.

For the compound `Cc1ccc(S(=O)(=O)n2c(-c3cc(=O)oc4ccc(C)cc34)nc3ccccc32)cc1`, the GI50 with HeLa [10] was determined as 36.2 µg/mL (≈ 84.1 µM).

In the case of `C/C(=N\NC1=NCC(=O)S1)c1ccc(NS(=O)(=O)c2ccc3oc(=O)ccc3c2)cc1`, in the assay with HepG2 [17], the IC50 came to 5.03 µM. In the case of `CC(c1cc2ccccc2oc1=O)(c1c[nH]c2ccccc12)c1c[nH]c2ccccc12`, the IC50 in the assay on HOS stood at 20.8 µM; in the assay with MCF7 [18], 19.8 µM. On to `Cc1cc(OCc2cn(C3C(=O)N(c4cccc([N+](=O)[O-])c4)C3/C=C\c3ccccc3)nn2)cc2oc(=O)cc(C)c12` (stereo not given), for which, in the assay with MCF7 [19], the IC50 came out at 53.6 µM. Turning to `O=C(/C=C/c1ccc(N2CCOCC2)cc1)c1cc2ccccc2oc1=O`, the IC50 in the assay on T47D came to 0.9 µM. On to `COc1cc(/C=C2/SC(=O)N(CCCOc3ccc4c(C)cc(=O)oc4c3)C2=O)cc(OC)c1O`, for which the IC50 with MCF7 [2] turned out to be 12.1 µg/mL (≈ 24.4 µM). Turning to `Cn1cc(C(C)(c2cc3ccccc3oc2=O)c2cn(C)c3ccccc23)c2ccccc21`, in the assay with HOS, the IC50 came to 12.2 µM. Turning to `COc1cccc(-c2cn(Cc3cc(=O)oc4cc(O)c(O)cc34)nn2)c1`, in the assay with K562 [20], the IC50 amounted to 17.9 µM. Regarding `COc1ccc(-c2cc(-c3cc4ccccc4oc3=O)nc3nc(C)[nH]c(=O)c23)cc1`, the half-inhibitory concentration (IC50) in the assay with MCF7 [9] was 1.1 µM.
